Reference: ChEMBL document CHEMBL4507269, “Data for DCP probe BAY-386” (2021)

Assays:
[1] = test system: Epidermal growth factor receptor (Homo sapiens), P00533 [G719S]; details: Compound concentration 1000.0 nM
[2] = target: Serine/threonine-protein kinase Nek10 (Homo sapiens) (UniProt Q6ZWH5); details: Compound concentration 1000.0 nM
[3] = target: Serine/threonine-protein kinase PLK2 (Homo sapiens) (UniProt Q9NYY3); details: Compound concentration 1000.0 nM
[4] = target: Inhibitor of nuclear factor kappa-B kinase subunit epsilon (Homo sapiens) (UniProt Q14164); details: Compound concentration 1000.0 nM
[5] = target: Citron Rho-interacting kinase (Homo sapiens) (UniProt O14578); details: Compound concentration 1000.0 nM
[6] = target: Bone morphogenetic protein receptor type-2 (Homo sapiens) (UniProt Q13873); details: Compound concentration 1000.0 nM
[7] = target: T1, Prostaglandin E2 receptor EP3 subtype (Homo sapiens) (UniProt P43115); test: EP3 (h) Eurofins-Cerep Cellular and Nuclear Receptor Functional Assays; details: Compound concentration 10.0 uM
T1 sequence (whole entry): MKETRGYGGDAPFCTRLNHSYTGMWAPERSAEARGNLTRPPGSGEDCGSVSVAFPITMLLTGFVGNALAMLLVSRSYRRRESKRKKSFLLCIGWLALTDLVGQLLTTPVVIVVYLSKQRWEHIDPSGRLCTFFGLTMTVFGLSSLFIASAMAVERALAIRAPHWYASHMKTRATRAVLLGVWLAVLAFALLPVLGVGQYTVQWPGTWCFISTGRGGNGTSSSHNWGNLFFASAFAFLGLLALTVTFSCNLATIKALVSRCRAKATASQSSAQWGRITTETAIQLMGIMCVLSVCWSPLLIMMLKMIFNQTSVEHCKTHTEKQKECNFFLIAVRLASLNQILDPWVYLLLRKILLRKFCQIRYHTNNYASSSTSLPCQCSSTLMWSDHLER

[8] = target: Dual specificity tyrosine-phosphorylation-regulated kinase 1A (Homo sapiens) (UniProt Q13627); details: Compound concentration 1000.0 nM
[9] = target: Cyclin-dependent kinase-like 5 (Homo sapiens) (UniProt O76039); details: Compound concentration 1000.0 nM
[10] = target: Sodium-dependent serotonin transporter (Homo sapiens) (UniProt P31645); details: Compound concentration 10.0 uM
[11] = target: T2, Alpha-2A adrenergic receptor (Homo sapiens) (UniProt P08913); test: alpha2A (h) Eurofins-Cerep Cellular and Nuclear Receptor Functional Assays; details: Compound concentration 10.0 uM
T2 sequence (whole entry): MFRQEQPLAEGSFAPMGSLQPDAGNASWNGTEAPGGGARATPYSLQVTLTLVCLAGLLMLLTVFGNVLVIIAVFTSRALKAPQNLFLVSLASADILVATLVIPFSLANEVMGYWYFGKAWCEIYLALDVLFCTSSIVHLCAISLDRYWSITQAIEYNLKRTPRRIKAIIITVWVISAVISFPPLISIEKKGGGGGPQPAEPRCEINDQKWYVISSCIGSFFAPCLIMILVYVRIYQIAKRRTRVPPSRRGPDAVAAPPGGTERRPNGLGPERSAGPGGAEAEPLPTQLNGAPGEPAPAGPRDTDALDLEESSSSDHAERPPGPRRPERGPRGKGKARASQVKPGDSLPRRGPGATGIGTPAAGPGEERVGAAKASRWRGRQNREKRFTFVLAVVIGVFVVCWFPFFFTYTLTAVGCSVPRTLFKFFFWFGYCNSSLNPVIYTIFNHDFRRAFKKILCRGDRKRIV

[12] = target: Proto-oncogene tyrosine-protein kinase ROS (Homo sapiens) (UniProt P08922); details: Compound concentration 1000.0 nM
[13] = target: T3, 5-hydroxytryptamine receptor 1A (Homo sapiens) (UniProt P08908); test: 5-HT1A (h) Eurofins-Cerep Cellular and Nuclear Receptor Functional Assays; details: Compound concentration 10.0 uM
T3 sequence (whole entry): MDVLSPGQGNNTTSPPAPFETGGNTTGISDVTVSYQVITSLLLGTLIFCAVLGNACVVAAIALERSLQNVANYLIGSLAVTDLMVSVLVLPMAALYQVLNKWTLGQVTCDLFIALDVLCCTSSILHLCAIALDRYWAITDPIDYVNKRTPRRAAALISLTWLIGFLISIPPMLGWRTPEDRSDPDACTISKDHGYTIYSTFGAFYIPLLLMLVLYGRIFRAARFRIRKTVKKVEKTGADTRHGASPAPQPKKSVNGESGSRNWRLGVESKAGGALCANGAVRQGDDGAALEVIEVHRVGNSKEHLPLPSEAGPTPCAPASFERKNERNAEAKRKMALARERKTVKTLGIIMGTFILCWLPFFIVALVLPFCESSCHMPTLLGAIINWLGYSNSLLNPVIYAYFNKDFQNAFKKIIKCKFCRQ

[14] = target: Phosphatidylinositol 4,5-bisphosphate 3-kinase catalytic subunit alpha isoform (Homo sapiens) (UniProt P42336); details: Compound concentration 1000.0 nM
[15] = target: Phosphatidylinositol 3-kinase catalytic subunit type 3 (Homo sapiens) (UniProt Q8NEB9); details: Compound concentration 1000.0 nM
[16] = target: cGMP-dependent protein kinase 1 (Homo sapiens) (UniProt Q13976); details: Compound concentration 1000.0 nM
[17] = target: TRAF2 and NCK-interacting protein kinase (Homo sapiens) (UniProt Q9UKE5); details: Compound concentration 1000.0 nM
[18] = test system: Tyrosine-protein kinase ABL1 (Homo sapiens), P00519 [M351T]; details: Compound concentration 1000.0 nM
[19] = target: Serine/threonine-protein kinase TAO3 (Homo sapiens) (UniProt Q9H2K8); details: Compound concentration 1000.0 nM
[20] = test system: Epidermal growth factor receptor (Homo sapiens), P00533 [UNDEFINED MUTATION]; details: Compound concentration 1000.0 nM
[21] = target: Aurora kinase B (Homo sapiens) (UniProt Q96GD4); details: Compound concentration 1000.0 nM
[22] = target: Mitogen-activated protein kinase 15 (Homo sapiens) (UniProt Q8TD08); details: Compound concentration 1000.0 nM
[23] = target: Serine/threonine-protein kinase 17B (Homo sapiens) (UniProt O94768); details: Compound concentration 1000.0 nM
[24] = target: Serine/threonine-protein kinase SBK1 (Homo sapiens) (UniProt Q52WX2); details: Compound concentration 1000.0 nM
[25] = target: Megakaryocyte-associated tyrosine-protein kinase (Homo sapiens) (UniProt P42679); details: Compound concentration 1000.0 nM
[26] = target: Myosin-IIIa (Homo sapiens) (UniProt Q8NEV4); details: Compound concentration 1000.0 nM
[27] = target: Phosphatidylinositol 4,5-bisphosphate 3-kinase catalytic subunit gamma isoform (Homo sapiens) (UniProt P48736); details: Compound concentration 1000.0 nM

Cyclin-dependent kinase-like 5 (Homo sapiens), sequence (O76039 whole entry): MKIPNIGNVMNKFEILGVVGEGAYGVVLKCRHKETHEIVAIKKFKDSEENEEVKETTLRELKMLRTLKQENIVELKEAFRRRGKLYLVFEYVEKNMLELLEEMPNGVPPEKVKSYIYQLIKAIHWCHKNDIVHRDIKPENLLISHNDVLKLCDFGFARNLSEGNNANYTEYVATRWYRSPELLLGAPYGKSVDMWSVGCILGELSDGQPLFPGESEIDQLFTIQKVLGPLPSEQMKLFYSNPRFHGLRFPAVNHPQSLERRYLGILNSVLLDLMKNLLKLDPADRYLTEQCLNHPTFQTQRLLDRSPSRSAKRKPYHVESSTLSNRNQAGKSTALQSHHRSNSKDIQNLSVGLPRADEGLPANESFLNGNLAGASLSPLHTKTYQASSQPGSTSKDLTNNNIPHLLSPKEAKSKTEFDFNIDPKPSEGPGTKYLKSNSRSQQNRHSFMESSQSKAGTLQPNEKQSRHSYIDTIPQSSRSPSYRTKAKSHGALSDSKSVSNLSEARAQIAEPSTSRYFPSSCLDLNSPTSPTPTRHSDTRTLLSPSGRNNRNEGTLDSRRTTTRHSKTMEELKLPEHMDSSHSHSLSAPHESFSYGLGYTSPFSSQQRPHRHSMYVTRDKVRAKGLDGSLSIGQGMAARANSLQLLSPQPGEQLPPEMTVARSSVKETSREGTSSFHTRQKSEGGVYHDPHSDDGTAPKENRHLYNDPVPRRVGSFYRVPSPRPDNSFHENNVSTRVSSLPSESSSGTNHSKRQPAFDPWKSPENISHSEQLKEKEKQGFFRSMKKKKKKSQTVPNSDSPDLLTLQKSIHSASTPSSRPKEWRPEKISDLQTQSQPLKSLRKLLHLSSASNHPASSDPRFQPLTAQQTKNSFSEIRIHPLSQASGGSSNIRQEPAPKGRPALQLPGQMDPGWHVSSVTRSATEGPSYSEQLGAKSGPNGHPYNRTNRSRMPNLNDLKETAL
Sodium-dependent serotonin transporter (Homo sapiens), sequence (P31645 whole entry, looked up): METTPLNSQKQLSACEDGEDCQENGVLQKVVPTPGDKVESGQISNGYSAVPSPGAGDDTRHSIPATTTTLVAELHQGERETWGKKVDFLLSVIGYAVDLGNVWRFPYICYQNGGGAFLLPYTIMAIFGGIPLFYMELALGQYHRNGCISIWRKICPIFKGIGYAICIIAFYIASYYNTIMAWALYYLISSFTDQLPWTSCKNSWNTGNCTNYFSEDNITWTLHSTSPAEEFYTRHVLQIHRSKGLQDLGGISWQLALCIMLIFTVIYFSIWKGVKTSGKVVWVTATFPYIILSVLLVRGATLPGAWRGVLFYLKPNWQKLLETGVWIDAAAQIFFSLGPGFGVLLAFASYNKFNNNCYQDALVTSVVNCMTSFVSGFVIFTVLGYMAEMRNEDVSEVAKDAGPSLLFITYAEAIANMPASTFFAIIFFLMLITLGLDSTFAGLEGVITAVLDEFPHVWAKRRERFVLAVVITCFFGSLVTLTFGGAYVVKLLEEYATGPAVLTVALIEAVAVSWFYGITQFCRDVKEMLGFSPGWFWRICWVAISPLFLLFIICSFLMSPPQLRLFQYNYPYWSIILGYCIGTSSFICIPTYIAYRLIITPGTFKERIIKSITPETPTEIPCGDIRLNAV
Aurora kinase B (Homo sapiens), sequence (Q96GD4 whole entry): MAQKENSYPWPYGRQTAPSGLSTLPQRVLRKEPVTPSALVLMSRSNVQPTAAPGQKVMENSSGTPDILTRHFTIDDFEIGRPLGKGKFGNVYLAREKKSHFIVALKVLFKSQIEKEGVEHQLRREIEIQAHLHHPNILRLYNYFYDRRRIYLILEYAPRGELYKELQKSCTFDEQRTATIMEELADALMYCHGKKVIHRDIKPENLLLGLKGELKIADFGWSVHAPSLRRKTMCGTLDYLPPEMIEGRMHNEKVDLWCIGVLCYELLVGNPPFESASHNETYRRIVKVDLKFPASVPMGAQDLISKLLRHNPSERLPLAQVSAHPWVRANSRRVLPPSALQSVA
TRAF2 and NCK-interacting protein kinase (Homo sapiens), sequence (Q9UKE5 whole entry, looked up): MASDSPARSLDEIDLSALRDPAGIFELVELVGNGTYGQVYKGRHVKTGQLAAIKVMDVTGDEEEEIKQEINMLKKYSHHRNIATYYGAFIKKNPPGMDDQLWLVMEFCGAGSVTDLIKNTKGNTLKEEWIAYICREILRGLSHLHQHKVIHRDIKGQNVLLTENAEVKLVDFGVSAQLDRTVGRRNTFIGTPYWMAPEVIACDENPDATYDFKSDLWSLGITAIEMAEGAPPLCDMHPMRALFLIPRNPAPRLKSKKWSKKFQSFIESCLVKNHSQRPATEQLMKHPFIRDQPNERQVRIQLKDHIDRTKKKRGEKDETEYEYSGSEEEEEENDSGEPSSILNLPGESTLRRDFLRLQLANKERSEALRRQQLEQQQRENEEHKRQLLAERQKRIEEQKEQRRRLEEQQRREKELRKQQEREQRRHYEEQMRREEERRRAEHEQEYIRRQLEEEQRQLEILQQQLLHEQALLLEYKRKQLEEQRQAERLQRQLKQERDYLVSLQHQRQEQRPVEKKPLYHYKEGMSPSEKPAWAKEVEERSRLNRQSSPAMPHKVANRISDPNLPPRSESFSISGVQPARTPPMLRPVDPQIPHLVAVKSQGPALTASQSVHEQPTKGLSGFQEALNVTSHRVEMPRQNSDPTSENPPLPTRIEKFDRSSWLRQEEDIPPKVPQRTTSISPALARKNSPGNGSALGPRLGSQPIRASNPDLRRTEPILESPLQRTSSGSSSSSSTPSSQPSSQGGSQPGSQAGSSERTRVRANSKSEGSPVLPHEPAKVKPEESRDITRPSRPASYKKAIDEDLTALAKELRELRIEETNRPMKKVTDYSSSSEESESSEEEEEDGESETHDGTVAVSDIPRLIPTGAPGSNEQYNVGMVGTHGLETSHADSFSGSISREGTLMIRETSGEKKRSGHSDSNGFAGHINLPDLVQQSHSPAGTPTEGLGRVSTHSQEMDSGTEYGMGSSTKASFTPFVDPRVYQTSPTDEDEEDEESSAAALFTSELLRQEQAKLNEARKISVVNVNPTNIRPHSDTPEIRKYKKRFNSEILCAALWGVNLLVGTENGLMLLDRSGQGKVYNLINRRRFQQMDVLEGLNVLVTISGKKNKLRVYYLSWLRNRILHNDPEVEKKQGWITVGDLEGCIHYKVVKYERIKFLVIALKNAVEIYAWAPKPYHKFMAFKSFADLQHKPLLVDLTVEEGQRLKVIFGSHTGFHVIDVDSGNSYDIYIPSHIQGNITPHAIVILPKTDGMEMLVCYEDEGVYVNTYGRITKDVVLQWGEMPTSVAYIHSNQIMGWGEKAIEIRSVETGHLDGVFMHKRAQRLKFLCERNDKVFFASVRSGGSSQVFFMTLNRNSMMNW
cGMP-dependent protein kinase 1 (Homo sapiens), sequence (Q13976 whole entry): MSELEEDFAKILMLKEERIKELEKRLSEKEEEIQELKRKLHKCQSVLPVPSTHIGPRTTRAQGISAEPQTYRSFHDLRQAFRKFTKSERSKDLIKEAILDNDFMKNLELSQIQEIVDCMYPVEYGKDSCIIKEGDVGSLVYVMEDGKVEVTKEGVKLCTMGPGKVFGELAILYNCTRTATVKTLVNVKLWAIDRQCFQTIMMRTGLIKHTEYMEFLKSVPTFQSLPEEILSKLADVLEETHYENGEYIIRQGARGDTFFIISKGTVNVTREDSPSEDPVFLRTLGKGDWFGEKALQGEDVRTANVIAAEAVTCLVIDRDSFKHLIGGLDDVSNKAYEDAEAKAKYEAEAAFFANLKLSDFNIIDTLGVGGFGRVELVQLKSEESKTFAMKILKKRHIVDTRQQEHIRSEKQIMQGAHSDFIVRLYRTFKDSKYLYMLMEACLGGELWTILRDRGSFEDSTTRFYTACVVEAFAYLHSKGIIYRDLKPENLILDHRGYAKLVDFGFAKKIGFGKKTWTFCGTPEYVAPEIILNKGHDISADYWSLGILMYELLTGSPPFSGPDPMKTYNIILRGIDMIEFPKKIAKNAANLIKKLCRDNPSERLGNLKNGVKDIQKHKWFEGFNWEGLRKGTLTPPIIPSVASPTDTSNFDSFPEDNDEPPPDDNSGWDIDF
Serine/threonine-protein kinase SBK1 (Homo sapiens), sequence (Q52WX2 whole entry): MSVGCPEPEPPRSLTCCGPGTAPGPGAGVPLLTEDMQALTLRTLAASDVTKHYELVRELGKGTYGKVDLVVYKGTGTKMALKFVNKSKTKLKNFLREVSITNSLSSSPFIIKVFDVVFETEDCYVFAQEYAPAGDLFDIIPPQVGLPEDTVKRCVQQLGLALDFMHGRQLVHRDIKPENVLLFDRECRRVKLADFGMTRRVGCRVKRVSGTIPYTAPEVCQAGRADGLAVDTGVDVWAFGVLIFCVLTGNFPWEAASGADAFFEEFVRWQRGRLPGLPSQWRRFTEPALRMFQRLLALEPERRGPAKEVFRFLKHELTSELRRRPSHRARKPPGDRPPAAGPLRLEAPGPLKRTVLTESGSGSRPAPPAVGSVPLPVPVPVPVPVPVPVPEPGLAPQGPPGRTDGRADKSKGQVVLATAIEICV
Serine/threonine-protein kinase 17B (Homo sapiens), sequence (O94768 whole entry): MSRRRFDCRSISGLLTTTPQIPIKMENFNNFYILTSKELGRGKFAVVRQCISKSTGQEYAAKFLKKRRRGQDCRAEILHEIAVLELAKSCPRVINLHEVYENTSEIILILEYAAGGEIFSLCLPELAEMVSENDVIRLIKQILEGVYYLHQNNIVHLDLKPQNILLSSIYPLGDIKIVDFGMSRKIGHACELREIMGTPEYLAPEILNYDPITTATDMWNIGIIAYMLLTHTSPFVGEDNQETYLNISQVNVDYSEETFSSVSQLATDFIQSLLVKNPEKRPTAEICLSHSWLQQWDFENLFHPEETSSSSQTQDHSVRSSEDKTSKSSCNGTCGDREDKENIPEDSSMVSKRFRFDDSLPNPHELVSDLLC

`Cc1noc([C@H]2C[C@@H](c3ccc(C(F)(F)F)cc3)CN(C(=O)N3CCS(=O)(=O)C3)C2)n1` [BAY-448] was tested, and the residual activity [1] was 100%, the residual activity [2] was 84% and the residual activity [3] was 100%. For the same molecule, the residual activity [4] was 100%, the residual activity [5] was 98% and the residual activity [6] was 100%. It also gave a % Inhibition of Control Agonist Response (Mean n=2) [7] of 0.6%, a % of Control Agonist Response (Mean n=2) [7] of -0.6% and a residual activity [8] of 100%. The residual activity [9] was 100%, the inhibition [10] was 5.57% and the % Inhibition of Control Agonist Response (Mean n=2) [11] was -13.5%. The % of Control Agonist Response (Mean n=2) [11] was 2.5%, the residual activity [12] was 86% and the % Inhibition of Control Agonist Response (Mean n=2) [13] was -23%. It also gave a % of Control Agonist Response (Mean n=2) [13] of 1.1%, a residual activity [14] of 99% and a residual activity [15] of 90%. For the same molecule, the residual activity [16] was 100%, the residual activity [17] was 99% and the residual activity [18] was 84%. The residual activity [19] was 100%, the residual activity [20] was 100% and the residual activity [21] was 100%. The residual activity [22] was 100%, the residual activity [23] was 100% and the residual activity [24] was 100%. It also gave a residual activity [25] of 100%, a residual activity [26] of 100% and a residual activity [27] of 85%.

`O=C(N1CCS(=O)(=O)CC1)N1C[C@H](c2ccc(OC(F)(F)F)cc2)C[C@H](c2nc(C3CC3)no2)C1` [BAY-386] showed a residual activity [1] of 99%, a residual activity [2] of 81% and a residual activity [3] of 100%. It also gave a residual activity [4] of 100%, a residual activity [5] of 100% and a residual activity [6] of 100%. It also gave a % Inhibition of Control Agonist Response (Mean n=2) [7] of -8%, a % of Control Agonist Response (Mean n=2) [7] of 4.5% and a residual activity [8] of 100%. It also gave a residual activity [9] of 100%, an inhibition [10] of 8.68% and a % Inhibition of Control Agonist Response (Mean n=2) [11] of -1.7%. It also gave a % of Control Agonist Response (Mean n=2) [11] of 6.3%, a residual activity [12] of 100% and a % Inhibition of Control Agonist Response (Mean n=2) [13] of 25.6%. For the same molecule, the % of Control Agonist Response (Mean n=2) [13] was -0.2%, the residual activity [14] was 100% and the residual activity [15] was 100%. The residual activity [16] was 100%, the residual activity [17] was 75% and the residual activity [18] was 100%. For the same molecule, the residual activity [19] was 100%, the residual activity [20] was 100% and the residual activity [21] was 100%. It also gave a residual activity [22] of 100%, a residual activity [23] of 100% and a residual activity [24] of 90%. It also gave a residual activity [25] of 100%, a residual activity [26] of 100% and a residual activity [27] of 100%.
